Experiment [1] deals with EGFR del19/T790M/C797S mutant kinase (Homo sapiens, UniProt P00533, C797S/DEL746-750/T790M). The experiment in a line: HTRF kinase assay, EGFR del19/T790M/C797S mutant kinase. It is filed as biochemical. The settings on record: 120 minutes at room temperature. The source says:
Test Example 1. Determination of the Inhibitory Effect of the Compounds of the Present Invention on the Activity of EGFR del19/T790M/C797S and EGFR L858R/T790M/C797S Mutant Kinases
Experimental objective: The objective of this test example is to test the inhibitory activity of the compounds on the activity of EGFR del19/T790M/C797S and EGFR L858R/T790M/C797S mutant kinases.
Experimental method: This experiment used Cisbio's HTRF kinase assay method (Cisbio #62TK0PEB), wherein a catalytic reaction occurred between the substrate polypeptide TK and ATP in the presence of the tyrosine kinase with EGFR del19/T790M/C797S or EGFR L858R/T790M/C797S mutation, the substance was phosphorylated, and the activity of the kinase was characterized by measuring the content of the phosphorylated substrate generated during the reaction, and the half inhibitory concentration IC50 of the compound on the activity of EGFR del19/T790M/C797S or EGFR L858R/T790M/C797S mutant kinase was obtained.
Specific Experimental Operations were as Follows: • the kinase reaction was carried out in a white 384-well plate (Perkin Elmer #6008280), and 1-5 μL of compounds of different concentrations which were diluted with 1% DMSO-containing ddH2O were added; to the positive control wells were added 1-5 μL of 1% DMSO-containing ddH2O, followed by 1-5 μL of 0.5-5 nM 4×EGFR del19/T790M/C797S or EGFR L858R/T790M/C797S mutant kinase solution which was diluted with Dilution buffer (5× kinase buffer, MgCl2 6.65 Mm, MnCl2 1.33 mM, DTT 1.33 mM); to the negative control wells were added 1-5 μL of Dilution buffer; to all the wells were added 1-5 μL of 4 μM 4× substrate TK solution which was prepared with 10× Dilution buffer, and finally added 1-5 μL of 24 μM 4×ATP solution which was diluted with Dilution buffer to start the reaction; after reacting at room temperature for 120 minutes, 10 μL of detection solution (TK antibody 16 nM, XL665 0.5 μM) was added to each well, same was reacted at room temperature in the dark for 20 minutes, and then the […] was detected using a BioTek Synergy H1 microplate reader.
The percent inhibition data for compound-treated wells was calculated according to the positive control wells (DMSO control wells) and negative control wells (no kinase added) on the plate {% inhibition rate=100−[(test compound value−negative control value)]/(positive control value−negative control value)×100}. GraphPad prism was used to fit different concentrations and corresponding percent inhibition rate data to a 4-parameter nonlinear logistic equation to calculate IC50 values.

The test system of experiment [2] is Ba/F3 EGFR Del19/C797S cells. The experiment in a line: Cell proliferation inhibition assay (Cell Titer-Glo), Ba/F3 EGFR Del19/C797S. The settings on record: 72 hours, read-out: Ba/F3 EGFR Del19_C797S IC50. It is filed as cell-based. The source says: (§1) Test Example 2: Cell Proliferation Inhibition Assay
(§2) Experimental objective: The objective of this test example is to test the inhibitory activity of compounds on the proliferation of different EGFR C797S drug-resistant mutant cell lines Ba/F3 EGFR Del19/T790M/C797S, Ba/F3 EGFR L858R/T790M/C797S, and Ba/F3 EGFR Del19/C797S.
(§3) • Ba/F3 EGFR Del19/T790M/C797S cells were purchased from KYinno Biotechnology Co., Ltd.; • Ba/F3 EGFR Del19/C797S cells were purchased from CoBioer Biosciences Co., Ltd.; • Ba/F3 EGFR L858R/T790M/C797S cells were purchased from CoBioer Biosciences Co., Ltd.; • Cell Titer-Glo was purchased from Promega, with a catalog number of G7573; • RPMI 1640 was purchased from Gibco, with a catalog number of 22400089; • FBS was purchased from Gibco, with a catalog number of 10091148; • cell culture plates were purchased from Corning, with a catalog number of 3610.
(§4) The inhibitory activity of the compound on the proliferation of different EGFR C797S drug-resistant mutant cell lines was detected using the Cell Titer-Glo method. The different cell lines were cultured in RPMI 1640 complete culture medium containing 10% FBS under conditions of 37° C. and 5% CO2, the cells were collected by centrifugation when growing to a certain density, and adjusted to appropriate cell density after counting, the cells were spread on a white 96-well plate at 90 μL/well, and cultured in a 37° C., 5% CO2 incubator overnight, prepared compound solutions of different concentrations were added at 10 μL/well, corresponding solvent controls were set, and all wells were cultured in a 37° C., 5% CO2 incubator for 72 hours, 50 μL of CellTiter-Glo solution was added to each well, shook and mixed evenly, and incubated in the dark for 10 minutes, and a BioTek Synergy H1 microplate reader was used for reading.
(§5) The luminescence signal value was used to calculate the inhibition rate. Graphpad Prism software was used to fit the concentration and inhibition rate to a nonlinear regression curve, so as to obtain the IC50 value, as shown in Tables 3 and 4 below for details.
In general terms: Cellular ATP, detected with luciferase, serves as a proxy for viable cell number.

Experiment [3] has as its system Ba/F3 EGFR Del19/T790M/C797S cells. The experiment in a line: Cell proliferation inhibition assay (Cell Titer-Glo), Ba/F3 EGFR Del19/T790M/C797S. Type of experiment: cell-based. The settings on record: 72 hours, read-out: Ba/F3 EGFR Del19_T790M_C797S IC50.
Description: as §1, §2, §3, §4, §5

Chain of EGFR del19/T790M/C797S mutant kinase (P00533 with tags, fused parts or gaps C797S/DEL746-750/T790M limits assumed): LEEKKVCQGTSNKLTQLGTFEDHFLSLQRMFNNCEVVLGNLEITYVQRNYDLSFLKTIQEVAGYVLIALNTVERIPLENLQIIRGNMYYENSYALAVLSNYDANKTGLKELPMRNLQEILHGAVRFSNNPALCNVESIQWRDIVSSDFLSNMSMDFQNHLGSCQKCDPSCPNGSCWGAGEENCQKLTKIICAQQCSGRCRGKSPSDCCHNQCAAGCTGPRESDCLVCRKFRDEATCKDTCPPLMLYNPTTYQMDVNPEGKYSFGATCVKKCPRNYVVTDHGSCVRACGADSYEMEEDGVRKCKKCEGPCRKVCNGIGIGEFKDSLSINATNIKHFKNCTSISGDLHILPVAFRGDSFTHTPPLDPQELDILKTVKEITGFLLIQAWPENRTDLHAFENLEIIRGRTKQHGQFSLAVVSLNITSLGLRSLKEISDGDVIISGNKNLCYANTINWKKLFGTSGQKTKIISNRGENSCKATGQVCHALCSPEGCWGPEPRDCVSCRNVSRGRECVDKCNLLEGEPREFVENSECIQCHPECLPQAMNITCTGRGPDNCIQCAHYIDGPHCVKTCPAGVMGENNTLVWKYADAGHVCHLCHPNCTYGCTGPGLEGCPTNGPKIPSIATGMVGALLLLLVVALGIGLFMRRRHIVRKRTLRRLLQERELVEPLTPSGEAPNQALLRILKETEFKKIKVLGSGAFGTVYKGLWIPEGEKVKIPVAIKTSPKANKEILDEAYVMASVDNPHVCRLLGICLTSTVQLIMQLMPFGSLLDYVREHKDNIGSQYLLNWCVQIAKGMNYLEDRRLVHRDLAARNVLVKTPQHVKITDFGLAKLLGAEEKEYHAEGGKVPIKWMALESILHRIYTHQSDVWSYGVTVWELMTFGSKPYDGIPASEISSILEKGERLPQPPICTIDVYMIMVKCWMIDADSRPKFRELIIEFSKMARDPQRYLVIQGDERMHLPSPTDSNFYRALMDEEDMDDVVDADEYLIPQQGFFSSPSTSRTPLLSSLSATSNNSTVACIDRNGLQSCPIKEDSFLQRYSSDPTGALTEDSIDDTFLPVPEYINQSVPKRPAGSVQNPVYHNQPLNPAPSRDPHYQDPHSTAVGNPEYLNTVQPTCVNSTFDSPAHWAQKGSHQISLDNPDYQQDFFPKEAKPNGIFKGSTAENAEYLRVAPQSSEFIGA

Regarding `CC(C)c1cnc(N2CC(CS(C)(=O)=O)C2)c2cnc(Nc3ccnc(-c4cnn(S(=O)(=O)C5CC5)c4)n3)cc12` [Example 3, N-(2-(1-(cyclopropylsulfonyl)-1H-pyrazol-4-yl)pyrimidin-4-yl)-5-isopropyl-8-(3-((methanesulfonyl)methyl)azetidin-1-yl)-2,7-diazanaphthalen-3-amine], the results for the IC50 in experiment [1], in experiment [2] and in experiment [3] were 0.0094 µM, 0.01 µM and 0.0055 µM, respectively.

With `CC(C)c1ccc(N2C[C@H](CS(C)(=O)=O)[C@H]2C)c2cnc(Nc3ccnc(-c4cn(CCO)nc4Cl)n3)cc12` [Example 11, 2-(3-chloro-4-(4-((5-isopropyl-8-((2R,3S)-2-methyl-3-((methanesulfonyl)methyl)azabut-1-yl)isoquinolin-3-yl)amino)pyrimidin-2-yl)-1H-pyrazol-1-yl)ethanol], the IC50 in experiment [2] is 0.024 µM; in experiment [3], 0.0072 µM.

Regarding `CC(C)c1ccc(N2C[C@H](CS(C)(=O)=O)[C@H]2C)c2cnc(Nc3ccnc(-c4cnn(CC5(CC#N)CC5)c4)n3)cc12` [Example 18, 2-(1-((4-(4-((5-isopropyl-8-((2R,3S)-2-methyl-3-((methanesulfonyl)methyl)azetidin-1-yl)isoquinolin-3-yl)amino)pyrimidin-2-yl)-1H-pyrazol-1-yl)methyl)cyclopropyl)acetonitrile], the IC50 in experiment [1] is 0.0091 µM.

Turning to `CC(C)c1ccc(N2C[C@H](CS(C)(=O)=O)[C@H]2C)c2cnc(Nc3ccnc(-c4cnn(C(F)F)c4)n3)cc12` [Example 25, N-(2-(1-(difluoromethyl)-1H-pyrazol-4-yl)pyrimidin-4-yl)-5-isopropyl-8-((2R,3S)-2-methyl-3-((methanesulfonyl)methyl)azetidin-1-yl)isoquinolin-3-amine], the IC50 in experiment [2] was 0.054 µM; in experiment [3] it was 0.014 µM.

`CC(C)c1ccc(N2C[C@H](CS(C)(=O)=O)[C@H]2C)c2cnc(Nc3ccnc(-c4cnn(CCO)c4)n3)cc12` [Example 48, 2-(4-(4-((5-isopropyl-8-((2R,3S)-2-methyl-3-((methanesulfonyl)methyl)azetidin-1-yl)isoquinolin-3-yl)amino)pyrimidin-2-yl)-1H-pyrazol-1-yl)ethan-1-ol]: the results for the IC50 in experiment [1] and in experiment [2] were 0.0042 µM and 0.085 µM, respectively.

For `CC(C)c1ccc(N2C[C@H](CS(C)(=O)=O)[C@H]2C)c2cnc(Nc3ccnc(-c4cncs4)n3)cc12` [Example 54, 5-isopropyl-8-((2R,3S)-2-methyl-3-((methanesulfonyl)methyl)azetidin-1-yl)-N-(2-(thiazol-5-yl)pyrimidin-4-yl)isoquinolin-3-amine], the IC50 worked out at 0.0075 µM in experiment [1] and 0.032 µM in experiment [2].

With `Cc1nn(C)cc1-c1nccc(Nc2cc3c(C(C)C)ccc(N4C[C@H](CS(=O)(=O)N(C)C)[C@H]4C)c3cn2)n1` [Example 61, 1-((2R,3S)-1-(3-((2-(1,3-dimethyl-1H-pyrazol-4-yl)pyrimidin-4-yl)amino)-5-isopropylisoquinolin-8-yl)-2-methylazetidin-3-yl)-N,N-dimethyl methanesulfonamide], the figures for the IC50 in experiment [2] and in experiment [3] were 0.024 µM and 0.0091 µM, respectively.

In the case of `CC(C)c1ccc(N2C[C@H](CS(C)(=O)=O)[C@H]2C)c2cnc(Nc3ccnc(-c4cn(C5CC5)nc4Cl)n3)cc12` [Example 70, N-(2-(3-chloro-1-cyclopropyl-1H-pyrazol-4-yl)pyrimidin-4-yl)-5-isopropyl-8-((2R,3S)-2-methyl-3-((methanesulfonyl)methyl)azetidin-1-yl)isoquinolin-3-amine], the IC50 in experiment [2] came to 0.01 µM; in experiment [3], 0.011 µM.

For `COCCn1cc(-c2nccc(Nc3cc4c(C(C)C)ccc(N5C[C@H](CS(C)(=O)=O)[C@H]5C)c4cn3)n2)c(Cl)n1` [Example 73, N-(2-(3-chloro-1-(2-methoxyethyl)-1H-pyrazol-4-yl)pyrimidin-4-yl)-5-isopropyl-8-((2R,3S)-2-methyl-3-((methanesulfonyl)methyl)azetidin-1-yl)isoquinolin-3-amine], the IC50 in experiment [2] came out at 0.0085 µM; in experiment [3], 0.011 µM.

With `CC(C)c1ccc(N2C[C@H](N3CCOC3=O)[C@H]2C)c2cnc(Nc3ccnc(-c4cn(C)nc4Cl)n3)cc12` [Example 74, 3-((2R,3S)-1-(3-((2-(3-chloro-1-methyl-1H-pyrazol-4-yl)pyrimidin-4-yl)amino)-5-isopropylisoquinolin-8-yl)-2-methylazetidin-3-yl)oxazolidin-2-one], the IC50 in experiment [2] and in experiment [3] was 0.014 µM throughout.

Consider `CC(C)c1ccc(N2C[C@H](CS(C)(=O)=O)[C@H]2C)c2cnc(Nc3ccnc(-c4cn(C5CCOCC5)nc4Cl)n3)cc12` [Example 78, N-(2-(3-chloro-1-(tetrahydro-2H-pyran-4-yl)-1H-pyrazol-4-yl)pyrimidin-4-yl)-5-isopropyl-8-((2R,3S)-2-methyl-3-((methanesulfonyl)methyl)azetidin-1-yl)isoquinolin-3-amine], for which the IC50 in experiment [2] turned out to be 0.027 µM; in experiment [3], 0.012 µM.

Turning to `CC(C)c1ccc(N2CC(N(C)S(C)(=O)=O)C2)c2cnc(Nc3ccnc(-c4cn(CCO)nc4Cl)n3)cc12` [Example 79, N-(1-(3-((2-(3-chloro-1-(2-hydroxyethyl)-1H-pyrazol-4-yl)pyrimidin-4-yl)amino)-5-isopropylisoquinolin-8-yl)azetidin-3-yl)-N-methyl Methanesulfonamide], the IC50 in experiment [2] is 0.011 µM; in experiment [3], 0.0077 µM.

As to `CC(O)Cn1cc(-c2nccc(Nc3cc4c(C(C)C)ccc(N5C[C@H](CS(C)(=O)=O)[C@H]5C)c4cn3)n2)c(Cl)n1` (stereo partly drawn) [Example 80, 1-(3-chloro-4-(4-((5-isopropyl-8-((2R,3S)-2-methyl-3-((methanesulfonyl)methyl)azetidin-1-yl)isoquinolin-3-yl)amino)pyrimidin-2-yl)-1H-pyrazol-1-yl)propan-2-ol], the figures for the IC50 in experiment [2] and in experiment [3] were 0.017 µM and 0.01 µM, respectively.

As for `Cc1nn(C)cc1-c1nccc(Nc2cc3c(C(C)C)ccc(N4CC(CS(C)(=O)=NC#N)C4)c3cn2)n1` (stereo not shown) [Example 83, N-(((1-(3-((2-(1,3-dimethyl-1H-pyrazol-4-yl)pyrimidin-4-yl)amino)-5-isopropylisoquinolin-8-yl)azetidin-3-yl)methyl)(methyl)(carbonyl)-l6-sulfanylidene)cyanamide], the IC50 in experiment [2] stood at 0.074 µM.

In the case of `CC(C)c1ccc(N2CC(N3C[C@@H](C)OC3=O)C2)c2cnc(Nc3ccnc(-c4cn(C)nc4Cl)n3)cc12` [Example 84, (R)-3-(1-(3-((2-(3-chloro-1-methyl-1H-pyrazol-4-yl)pyrimidin-4-yl)amino)-5-isopropylisoquinolin-8-yl)azetidin-3-yl)-5-methyloxazolidin-2-one], the IC50 in experiment [2] worked out at 0.093 µM.

For the origin of these results see patent publication US20250368616A1, “NITROGEN-CONTAINING HETEROCYCLIC DERIVATIVE INHIBITOR, AND PREPARATION METHOD THEREFOR AND USE THEREOF” (SHANGHAI HANSOH BIOMEDICAL CO., LTD., priority 2021, published 2025).
